{"source": "paper PMC10816276", "about": "(International Journal of Molecular Sciences, 2024)", "origin": "cited, not measured here", "target": "T1, Mushroom tyrosinase (mTyr) (Agaricus bisporus, UniProt C7FF04)", "T1 construct": "purchased Sigma-Aldrich", "T1 sequence (C7FF04 1-392)": "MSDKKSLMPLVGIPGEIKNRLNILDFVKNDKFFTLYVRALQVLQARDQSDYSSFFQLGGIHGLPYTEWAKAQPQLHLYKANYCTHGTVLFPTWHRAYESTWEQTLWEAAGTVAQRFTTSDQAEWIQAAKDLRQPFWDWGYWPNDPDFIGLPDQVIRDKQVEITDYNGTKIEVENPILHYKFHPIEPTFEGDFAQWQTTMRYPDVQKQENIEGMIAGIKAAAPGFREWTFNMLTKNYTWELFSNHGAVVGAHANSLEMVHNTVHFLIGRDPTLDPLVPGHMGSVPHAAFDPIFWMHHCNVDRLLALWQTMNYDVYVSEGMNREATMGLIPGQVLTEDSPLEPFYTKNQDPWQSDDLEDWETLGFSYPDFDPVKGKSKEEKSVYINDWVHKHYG", "details": "substrate L-DOPA; cited from earlier work"}
{"compound": "OC[C@H]1O[C@@H](Oc2ccc(O)cc2)[C@H](O)[C@@H](O)[C@@H]1O", "note": "[beta-arbutin, reference compound]", "values": [{"measurement": "inhibitory effect on the diphenolase activity of mTyr", "result": "no inhibitory effect"}]}
